Reference: patent US8907089B2, “Fused heterocyclic ring derivative and use thereof” (Takeda Pharmaceutical Company Limited, priority 2009, dated 2014)

Tested on: mouse medulloblastoma (Patched 1(+/-), p53(-/-)) subcutaneously transplanted into nude mouse
Experiment: In vivo anti-tumor test, mouse medulloblastoma allogeneic transplantation model
Conditions: 1 mg/kg, orally twice a day for 2 weeks, 0.5% methylcellulose suspension; nude mouse with subcutaneous medulloblastoma; at the end of the test; p < 0.025 (Dunnett's test)
Protocol: According to the description in Sasaki, K. et al., (2006) Cancer Res. 66: 4215-4222, an anti-tumor effect of a compound was evaluated using a mouse medulloblastoma allogeneic transplantation model. To be precise, Patched 1 gene mutant mouse (lineage name: Ptch1tm1Mps/J) was purchased from The Jackson Laboratory and p53 gene mutant mouse (lineage name: P53N4-M, Nomenclature: B6.129-Trp53tm/BrdN4) was purchased from Taconic, and a mouse of Patched 1(+/−), p53(−/−) phenotype was prepared by mating. […]
An anti-tumor test was performed using a tumor passaged by subcutaneous transplantation. […] The tumor diameter after transplantation was measured and, when the tumor size reached 150-250 mm^3, the anti-tumor test was started using 5 mice per group.
The test compound was prepared to achieve a dose of 1 mg/kg with a 0.5% methylcellulose (Shin-Etsu Chemical Co. Ltd., Cat. No. SM-100) suspension, and orally administered twice a day for 2 weeks. The tumor size was calculated based on the longer diameter and shorter diameter of the tumor measured with an electron vernier caliper. After the start of the test, the tumor size was measured every 2 or 3 days and the growth rate of the tumor size was calculated. […]

SMILES | T/C (%) growth rate of the tumor size [%]
CCc1cc2c(c(OCC(F)(F)F)c(C(=O)NC3CCN(C(=O)CO)CC3)n2C)c(=O)n1-c1ccc(F)cc1 [Example 5, 6-ethyl-5-(4-fluorophenyl)-N-[1-(hydroxyacetyl)piperidin-4-yl]-1-methyl-4-oxo-3-(2,2,2-trifluoroethoxy)-4,5-dihydro-1H-pyrrolo[3,2-c]pyridine-2-carboxamide] | 42
CCc1cc2c(c(OC(C)C)c(C(=O)NC3CCN(C(=O)CO)CC3)n2C)c(=O)n1-c1ccc(F)cc1 [Example 7, 6-ethyl-5-(4-fluorophenyl)-N-[1-(hydroxyacetyl)piperidin-4-yl]-1-methyl-3-(1-methylethoxy)-4-oxo-4,5-dihydro-1H-pyrrolo[3,2-c]pyridine-2-carboxamide] | 40
